# According to patent publication US20040247586A1, “Parkin-associated complex for protecting post-mitotic neurons from excitotoxicity and uses thereof” (priority 2003, published 2004):
# Key:
# Type in all cases: cell-based, mouse
# [1] = system: E13.5 primary culture midbrain dopamine neurons; test: parkin siRNA knockdown in primary midbrain dopamine neuron cultures with kainate or MPP+, immunofluorescence and Hoechst
# Experimental: Dissociated midbrain cultures from El 3.5 mice were prepared as described (see Examples), transfected with 25 nM parkin or control (SERT) siRNA, and treated for 24 h with 250 μM kainate (A-X) or 1 μM MPP^+ (U—X). Cells were treated with Hoechst dye, fixed, and stained with rabbit polyclonal antibodies against either mouse parkin or cyclin E (green) and a rat monoclonal antibody against DAT (red). Immunostaining and apoptotic nuclei were visualized by fluorescence microscopy. Arrows point to examples of DAT-positive, cyclin-E-positive neurons (S) and DAT-positive neurons with apoptotic (Hoechst-positive) nuclei (I, J, and T). Total DAT-specific immunoreactivity (pixels), across 9 fields of view at 20×, was quantified in triplicate using Image software (Scion). Cytoplasmic parkin and cyclin E immunoreactivity (mean pixel density), in DAT-positive neurons, were similarly quantified. Data are shown as the mean±SEM. Statistical significance was assessed using one-way ANOVA with Tukey-Kramer post-hoc tests between each group. *=p<0.01; scale bar=150 μm
# FIG. 10 further illustrates parkin/cyclin E interaction. […] Total RNA was extracted from granule cell cultures transfected with parkin or vector alone (see FIG. 5), and from frontal cortex tissue from parkin-deficient ARPD (or age-matched control; see FIG. 4). Cyclin E and β-actin mRNA levels were determined by quantitative RT-PCR, as described (Troy et al., Death in the balance: alternative participation of the caspase-2 and -9 pathways in neuronal death induced by nerve growth factor deprivation. J. Neurosci., 21:5007-16, 2001). (B-D) Both cyclin E immunoreactivity (p<0.05) and apoptosis (p<0.05) are increased in DAT-negative neurons of primary midbrain cultures treated with parkin siRNA (and kainate) relative to control siRNA (and kainate). However, the increased cyclin E immunoreactivity and apoptosis are both less marked than in DAT-positive neurons (p<0.05 for both measures). DAT-negative neurons in midbrain cultures were analyzed as in FIG. 7; DAT-positive neuron data is from FIG. 7. Cytoplasmic parkin and cyclin E immunoreactivity (mean pixel density) in DAT-negative neurons were quantified in triplicate, across 9 fields of view at 20×. Data are shown as the mean±SEM. Statistical significance was assessed using one-way ANOVA with Tukey-Kramer post-hoc tests between each group. *=p<0.01; **=p<0.05; scale bar=150 μm (E-J) Human parkin lentiviral vectors efficiently infect cultured murine midbrain dopamine neurons. E13.5 murine midbrain cultures were infected with lentiviruses encoding human parkin or control (GFP), as described in FIG. 8.
# Cerebellar granule neurons from P6 mice were purified and transfected essentially as described (Scheiffele et al., Neuroligin expressed in nonneuronal cells triggers presynaptic development in contacting axons. Cell, 101:657-69, 2000). Dissociated cortical neurons from E16.5 mice were prepared and cultured as described (Scheiffele et al., Neuroligin expressed in nonneuronal cells triggers presynaptic development in contacting axons. Cell, 10 1:657-69, 2000). Primary midbrain cultures were prepared from E13.5 mouse embryos, as described (Hynes et al., Induction of midbrain dopaminergic neurons by Sonic hedgehog. Neuron, 15:35-44, 1995). Cells were treated for 24 h with or without kainate (250 or 500 μM as indicated; Sigma) or MPP^+ (1 or 10 μM as indicated; Sigma), stained for 20 min with 0.5 μg/ml Hoechst 33342 (Sigma), and visualized by fluorescence microscopy. For granule cell assays, at least 100 cells in two 20× fields were scored in duplicate for GFP and/or Hoechst signal. For immunohistochemistry, cell cultures were washed twice with PBS, and fixed for 20 min with 4% (w/v) paraformaldehyde. Cells were blocked for 1 h, at room temperature, with 3% (v/v) goat serum in PBS, and then incubated overnight, at 4° C., with specific antibodies, as indicated. […]
# [2] = system: cerebellar granule cells from P6 mice; test: parkin overexpression in kainate-treated cerebellar granule cells, cyclin E by Western blot / immunofluorescence / RT-PCR; settings: kainate 500 μM for 24 h
# Experimental: Cerebellar granule cells from post-natal day 6 (P6) mice were transfected in suspension with a bicistronic expression plasmid for wild-type parkin (along with GFP) or with vector (GFP alone), cultured at a density of 75,000 cells/cm^2 for 72 h, and then treated with or without 500 μM kainate for 24 h. (A) Cells were extracted directly with loading buffer, and lysates were analyzed by Western blotting, as indicated. (B-M) Granule cell cultures were fixed, stained with a specific antibody against cyclin E, and then visualized by fluorescence microscopy for cyclin E (red) and GFP (green). […]
# Cerebellar granule neurons from P6 mice were purified and transfected essentially as described (Scheiffele et al., Neuroligin expressed in nonneuronal cells triggers presynaptic development in contacting axons. Cell, 101:657-69, 2000). […] Cells were treated for 24 h with or without kainate (250 or 500 μM as indicated; Sigma) or MPP^+ (1 or 10 μM as indicated; Sigma), stained for 20 min with 0.5 μg/ml Hoechst 33342 (Sigma), and visualized by fluorescence microscopy. For granule cell assays, at least 100 cells in two 20× fields were scored in duplicate for GFP and/or Hoechst signal. […] Cells were washed, incubated for 1 h at room temperature with appropriately-labeled secondary antibodies, and visualized by fluorescence microscopy. […]
# [3] = system: dissociated cortical neurons from E16.5 mice; test: parkin siRNA knockdown in kainate-treated primary cortical cultures, Western blot; settings: 25 nM siRNA, then 500 μM kainate 24 h
# Experimental: (A) Insect cells were co-infected with baculoviruses expressing Flag-hSel-10 (110 kDa) or Flag-β-TrCP, GST-parkin, HA-CDK2, and either His6-cyclin E or His6-cyclin A1 (50 kDa). Cyclin-E- or cyclin-A1-associated complexes were isolated from cell lysates by nickel-agarose pull-downs, and analyzed by Western blotting, as indicated. (B) Flag-parkin-associated complexes (immunoprecipitated from HeLa cells transfected with Flag-tagged wild-type or T240R mutant parkin) were incubated with recombinant His6-cyclin E, HA-CDK2, E1, UbcH7, and ubiquitin, in the presence of an ATP-regenerating system. Recombinant His6-cyclin E generated in insect cells appears as a 51 -kDa band (arrow) and a minor contaminating species at 95-kDa. The asterisk indicates the position of an immunoglobulin heavy chain. (C) Parkin deficiency leads to cyclin E accumulation. Dissociated cortical neurons from E16.5 mice were cultured as described (see Examples), transfected with 25 nM parkin siRNA or control (DAT) siRNA, and then treated for 24 h with 500 μM kainate. […]
# Cerebellar granule neurons from P6 mice were purified and transfected essentially as described (Scheiffele et al., Neuroligin expressed in nonneuronal cells triggers presynaptic development in contacting axons. Cell, 101:657-69, 2000). […] Cells were treated for 24 h with or without kainate (250 or 500 μM as indicated; Sigma) or MPP^+ (1 or 10 μM as indicated; Sigma), stained for 20 min with 0.5 μg/ml Hoechst 33342 (Sigma), and visualized by fluorescence microscopy. For granule cell assays, at least 100 cells in two 20× fields were scored in duplicate for GFP and/or Hoechst signal. […] Cells were washed, incubated for 1 h at room temperature with appropriately-labeled secondary antibodies, and visualized by fluorescence microscopy. For midbrain culture experiments, DAT-specific immunoreactivity (pixels), and cytoplasmic parkin and cyclin E immunoreactivity (mean pixel density), were quantified in triplicate, across nine fields of view, at 20× using Image software (Scion). […]
compound,measurement,setting,value
"C[n+]1ccc(-c2ccccc2)cc1 [MPP^+, 1-Methyl-4-phenylpyridinium, reference compound]",DAT immunoreactivity after toxin,"[1]; MPP+ 10 μM, control siRNA-treated cultures",led to a reduction in DAT immunoreactivity comparable to the kainate treatment
"C=C(C)[C@H]1CN[C@H](C(=O)O)[C@H]1CC(=O)O [kainate, kainic acid]",cyclin E accumulation in granule cell cultures after toxin,[2],led to the accumulation of cyclin E
5′ UUCCAAACCGG AUGAGUGGdTdT 3′ [parkin siRNA],cyclin E accumulation in DAT-positive neurons,"[1]; 25 nM siRNA, 250 μM kainate 24 h, vs control (SERT) siRNA",increased accumulation of cyclin E
same,apoptosis of DAT-positive neurons (Hoechst),"[1]; 25 nM siRNA, 250 μM kainate 24 h, vs control siRNA",increased apoptosis
same,DAT immunoreactivity in cell bodies and processes,"[1]; 25 nM siRNA, in the presence of kainate, vs control siRNA",decreased DAT immunoreactivity
same,kainate sensitivity of DAT-negative neurons (cyclin E induction and apoptosis),"[1]; DAT-negative (primarily GABAergic) neurons vs DAT-positive population, p<0.05","did sensitize DAT-negative neurons to kainate toxicity, but to a significantly lesser extent"
same,dopamine neuron sensitivity to MPP+,[1]; MPP+ 10 μM,failed to alter dopamine neuron sensitivity
same,"cyclin E or DAT immunoreactivity, siRNA alone",[1]; in the absence of kainate,failed to alter cyclin E or DAT immunoreactivity
same,"cleaved-PARP, marker of apoptosis (Western blot)",[3],accumulation of cleaved poly (ADP-ribose) polymerase
same,cyclin E accumulation (Western blot),[3]; vs control (DAT) siRNA,increased accumulation of cyclin E
same,parkin protein expression (Western blot),[3]; vs control (DAT) siRNA,significantly reduced parkin expression
